In patent US20240075036A1, “THERAPEUTIC COMBINATIONS INCLUDING INHIBITORS OF THE P2X4 RECEPTOR FOR TREATING AND PREVENTING PROLIFERATIVE DISORDERS” (CHEMOTHERAPEUTISCHES FORSCHUNGSINSTITUT GEORG-SPEYER-HAUS, priority 2021, published 2024):
Residues, ends and D or L forms follow the SMILES beside them. *: point of attachment. Cbz = O=C(OCc1ccccc1)*; CH2F = FC*

Legend:
[1] = test system: HCT-116 cells; details: combination of SAMC and rapamycin; cited from earlier work
[2] = test system: S6 ribosomal protein phosphorylation (mTOR signaling); experiment: Immunoblot analysis of survival pathways / S6 phosphorylation in AOM/DSS tumor organoids; type: cell-based, mice; details: for ATP induced phosphorylation of S6: ATP (100 μM) in presence of inhibitor, AOM/DSS tumor organoids
Method: Data are mean±SD, n=7. *p<0.05 by two-tailed Student's t-test. c, Immunoblot analysis of Lgr5EGFP-DTR(−) tumor organoids treated with ATP (100 μM), 2MeS ADP (100 μM) and adenosine (100 μM) for 30 min. […] Data are mean±SD, n=4 replicates. […] Data are mean±SD, n=3 replicates. One representative of three experiment performed is shown. n.s. p>0,05, *p<0.05***, p<0.001, ****p<0.0001 by 1-way ANOVA with Bonferroni's multiple comparison test. 1, Immunoblot analysis of doxycycline inducible P2x4 knockdown APTAK colon tumor organoids treated with 5-FU (20 μM). Organoids were cultured in medium−/+doxycycline prior to the experiment. […] Organoids were cultured in medium−/+doxycycline prior to the experiment. […] Data are mean±SD, n=3.
In vitro Lgr5+ cells ablation experiments, organoids were treated with 20 ng/ml DT (Millipore, #322326) in the culture medium. For human LGR5+ cells ablation, we treated LGR5-iCT organoids with 500 nM BB homodimerizer. Other treatments were performed as described in each figure legends.

[3] = test system: AOM/DSSATKN tumor organoids; details: for rescue of organoid reseeding capacity under 5-FU/rapamycin: inhibitor of potential proapoptotic DAMPs added to 5-FU (20 μM) plus rapamycin (10 μM), 48 hours, re-seeded 72 h
From the text: Percentage of reseeding capacity compared to vehicle treated organoids is indicated. Data are mean±SD, n=4 replicates. […] Percentage of reseeding capacity compared to vehicle treated organoids is indicated.

[4] = test system: Lgr5EGFP-DTR(+) tumor organoids; experiment: Tumor organoid survival / cell death upon treatment with or without DT; type: cell-based, mice
From the text: Representative images are shown from at least three independent experiments. c, Average tumor size was counted on serial hematoxylin and eosin (H&E) stained sections on day 9 after 4 injections of either DT or vehicle. Data are mean±SD, n≥8/treatment. p>0.05 (n.s., not significant) by two-tailed Student's t-test. d, Immunohistochemical analysis and quantification of Lgr5-EGFP expression in GFP-stained colon tumor from Lgr5EGFP-DTR(+) mice on day 9 treated with DT as indicated in a). Representative images are shown (n≥8/treatment, scale bar=300 μm). […] Representative images are shown from four independent experiments (n=4/treatment, scale bar=200 μm). Data represent mean±SD, n=4/treatment. p>0.05 (n.s., not significant) by two-tailed Student's t-test. f, Flow cytometric analysis of Lgr5-EGFP+tumor cells from Lgr5EGFP-DTR(+) tumor organoids 24 h after DT treatment. Representative results are shown (n≥3). g, AOM/DSS colon tumor organoids from Lgr5EGFP-DTR(−) and Lgr5EGFP-DTR(+) mice were treated with DT (20 ng/ml) for 24 h. Representative images are shown from two independent experiments (scale bar=200 μm). h, Immunoblot analysis of Lgr5EGFP-DTR(+) and Lgr5EGFP-DTR(−) tumor organoids treated with DT for 24 h. […] 1, Control and raptor knockdown Lgr5EGFP-DTR(+) tumor organoids were passaged and counted after 72 h. […]

[5] = test system: refractory metastatic colorectal cancer / refractory solid tumors; details: further addition of panitumumab to everolimus + mFOLFOX6; cited from earlier work
[6] = test system: APTAK tumor organoids; experiment: APTAK tumor organoids: S6 phosphorylation and organoid survival; type: cell-based, mice; details: 5-FU
Method: Organoids were cultured in medium−/+doxycycline prior to the experiment. […] Organoids were cultured in medium−/+doxycycline prior to the experiment.
Colon tumor organoids were cultured as previously described (27). AOM/DSS induced colon tumors were harvested by opening the colon longitudinally and dissociated enzymatically for 30-40 min in digestion media containing 1 mg/ml collagenase I (Sigma-Aldrich), 0.5 mg/ml Dispase (Roche), 50 μg/ml DNase (Sigma-Aldrich) in RPMI medium containing 2% FCS. Supernatant was washed and filtered through a 70 μM cell strainer. Cells were then embedded in Matrigel (Corning, #356231) and cultured in Advanced Dulbecco's modified Eagle's medium/F12 (Invitrogen, #12634-028) supplemented with Glutamax (Invitrogen, #35050038), Hepes (Invitrogen, #15630056), Pen/Strep (Invitrogen, #15140122), N2 supplement (Invitrogen, #17502048), B27supplement (Invitrogen, #17504044) and n-Acetylcysteine (Sigma-Aldrich, #A91165). EGF (Invitrogen, #PMG8045), RspoI and noggin were added as niche factor.

[7] = test system: human colon organoids derived from tumor tissue; experiment: ROS measurement with DCFDA in organoids; type: cell-based; details: 5-FU (20 μM, 20 h)
Method: (§1) Data are mean±SD, n=3. […] Data are mean±SD, n=3.
ATP level in organoid supernatant or necrotic medium was measured using the CellTiter-Glo 2.0 Cell Viability Assay (Promega #G9242) according to the manufacturers instruction. ROS levels were measured using H2DCFDA (ThermoFisher #D339). Briefly, organoids were treated as indicated with 5-FU, stained with H2DCFDA and then analyzed for H2DCFDA positivity using fluorescence microscopy or FACS.

[8] = test system: S6 ribosomal protein phosphorylation, DNA damage and apoptosis markers
[9] = test system: PC3 and C4-2B4 cells; details: selective P2XR4 antagonists; cited from earlier work
[10] = test system: S6 phosphorylation in intestinal epithelial cells (IEC); experiment: S6 phosphorylation in intestinal epithelial cells of wildtype mice; type: in vivo; details: azoxymethane (10 mg/kg single injection), untransformed wildtype mice
Method: as §1
Immunostaining was performed as previously described (35). Briefly, tissues were fixed with 4% paraformaldehyde. Six μm OCT frozen tissue sections or 5 μm paraffin-embedded tissue sections were processed for immunostaining using a standard histological protocol. Following primary antibodies were used: EGFP (Abcam, #ab6673), tdTomato (Rockland, #600-401-379), cleaved caspase 3 (Cell Signaling, #9579), Ki67 (Leica Bioststems, #NCL-L-Ki67-MM1), phospho-S6 (Cell Signaling, #2211),P2x4 (Abcam #134559). Sections were then incubated with HRPconjugated antibodies (Dako) and signal was detected with DAB reaction. For immunofluorescence staining after primary antibody incubation, sections were incubated with flourochrome-labelled secondary antibodies (Invitrogen) and sections were mounted with ProLong Gold Antifade Mountant with DAPI (Invitrogen, #P36931). Images were captured on a Zeiss microscope.

[11] = test system: subcutaneous AOM/DSSATKN tumors; type: in vivo, NSG mice
[12] = test system: subcutaneous APTAKshP2x4 tumors; experiment: Subcutaneous APTAKshP2x4 tumors, 5-FU/rapamycin with or without NAC; type: in vivo, mice; details: additional application of NAC (0,5% in drinking water)
Method: as §1
Organoids were collected using ice cold Cell Recovery Solution (Corning, #354253) and mechanically dissociated into small clusters. Dissociated organoid cells were resuspended in PBS, admixed with 50% Matrigel (Corning, #356231) in a final volume of 100 μl, and injected subcutaneously in the right flank of NSG mice. Tumor size was monitored with a digital caliper and tumor volumes were calculated according to the formula (length×width×width)/2. At the end of experiments mice were humanely euthanized to collect tumors.
DT (Millipore, #322326) treatment was performed as previously described (3, 4). Briefly, DT was injected intraperitonially at a dose of 50 μg/kg for the time indicated in individual experiments. mTOR inhibitor rapamycin (LC Labs, #-5000) was dissolved in 5% Ethanol, 5% PEG400 and 5% Tween 80 in PBS and injected i.p. at 10 mg/kg once a day for indicated time. 0.5% N-acetylcysteine (Sigma-Aldrich, #A91165) was applied ad libitum in drinking water. 0.5 mg/ml Doxycycline (Sigma #D9891) was applied ad libitum in drinking water containing 3% Sucrose. 5-FU (Sigma #F6627) was dissolved in sterile H2O and injected intraperitoneally for the time indicated in individual experiments at a concentration of 20 mg/kg.

C=CCSSC[C@H](N)C(=O)O [SAMC, S-allylmercapto-cysteine]
tumor suppression [1]: enhanced tumor-suppressing ability

O=C(Nc1ccc(C(=O)Nc2ccc(C(=O)Nc3ccc(S(=O)(=O)O)c4cc(S(=O)(=O)O)cc(S(=O)(=O)O)c34)cc2)cc1)Nc1ccc(C(=O)Nc2ccc(C(=O)Nc3ccc(S(=O)(=O)O)c4cc(S(=O)(=O)O)cc(S(=O)(=O)O)c34)cc2)cc1 [NF279]
ATP induced phosphorylation of S6 [2]: did not decrease ATP dependent S6 phosphorylation

Nc1nc2c(ncn2[C@@H]2O[C@@H]3COP(=O)(O)O[C@H]4[C@@H](O)[C@H](n5cnc6c(N)ncnc65)O[C@@H]4COP(=O)(O)O[C@@H]2[C@@H]3O)c(=O)[nH]1 [cGAMP]
phosphorylation of S6-ribosomal protein ([2]; exogenous cGAMP): induced phosphorylation of S6-ribosomal protein in a dose dependent manner

Anakinra: IL-1 signaling inhibitor
rescue of organoid reseeding capacity under 5-FU/rapamycin [3]: only inhibition of ROS signaling by NAC was able to rescue

Clc1cccc(-c2nnnn2Cc2cccnc2)c1Cl [A-438079]
ATP induced phosphorylation of S6 [2]: did not decrease ATP dependent S6 phosphorylation

CNC(=O)c1ccc(C)c(-n2c(C)cc(OCc3ccc(F)cc3F)c(Br)c2=O)c1 [PH797804]
tumor organoid survival ([4]; MAPK inhibitor (JNK or p38) in the presence or absence of DT): did not affect tumor organoid survival

panitumumab: added to everolimus + mFOLFOX6 in phase I trial
toxicity [5]: unacceptable level of toxicity

O=c1[nH]cc(F)c(=O)[nH]1 [5-FU, 5-fluorouracil]
S6 phosphorylation [6]: led to mTOR dependent S6 phosphorylation
ROS levels (DCFDA) [7]: tumor organoid specific ROS increase
S6 phosphorylation ([8]; 5-FU (20 μM, 24 hours), AOM/DSS tumor tissues and tumor organoids): induced S6 phosphorylation
phosphorylation of S6 ([2]; 5-FU, absence of Lgr5+ cells (Noggin withdrawal)): able to induce phosphorylation of S6

Cc1ccc(S(=O)(=O)N2c3ccccc3Oc3ccccc32)cc1 [PSB-12062]
growth, mobility and apoptosis of PCa cells [9]: impaired the growth and mobility of PCa cells but not apoptosis

CN=[N+](C)[O-] [azoxymethane]
S6 phosphorylation in IEC [10]: enhanced S6 phosphorylation in IEC

Nc1ncnc2c1ncn2[C@@H]1O[C@H](COP(=O)(O)OP(=O)(O)OP(=O)(O)O)[C@@H](O)[C@H]1O [ATP, adenosine triphosphate]
phosphorylation of S6-ribosomal protein ([2]; Lgr5EGFP-DTR(−) tumor organoids, 100 μM, 30 min): induced phosphorylation of S6-ribosomal protein

CC(=O)N[C@@H](CS)C(=O)O [NAC, N-acetylcysteine]
apoptosis in tumor tissues (cleaved Caspase 3) ([11]; NAC (0,5% in drinking water) in DT/rapamycin treated animals): reduced apoptosis in tumor tissues
DNA damage and apoptosis in tumor organoids ([8]; NAC (2 mM) in addition to DT and rapamycin, compared to DT/rapamycin alone): decreased DNA damage and apoptosis
tumor regression in 5-FU/rapamycin treated mice [12]: revert tumor regression

Apyrase
S6 phosphorylation induced by DT treatment or necrotic supernatant ([2]; Apyrase hydrolyzing released ATP): reduce the levels of S6 phosphorylation

NC(=O)c1ncn([C@@H]2O[C@H](CO)[C@@H](O)[C@H]2O)c1O [mizoribine]
S6-ribosomal protein phosphorylation ([11]; mizoribine in combination with DT-mediated depletion of Lgr5+ cells): without affecting S6-ribosomal protein phosphorylation
viable proliferative tumor cells ([11]; mizoribine in combination with DT-mediated depletion of Lgr5+ cells, s.c. tumors): markedly reduced viable proliferative
organoid collapse ([4]; mizoribine in combination with DT-mediated depletion of Lgr5+ cells, ex vivo): profound organoid collapse

Cc1nc(N=Nc2ccc(S(=O)(=O)O)cc2S(=O)(=O)O)c(COP(=O)(O)O)c(C=O)c1O [PPADS]
Lgr5+ cell death induced S6 phosphorylation ([2]; non-selective P2 receptor antagonists): blocked Lgr5+ cell death induced S6 phosphorylation

Enbrel
rescue of organoid reseeding capacity under 5-FU/rapamycin [3]: only inhibition of ROS signaling by NAC was able to rescue

COC(=O)C[C@H](NC(=O)[C@H](C)NC(=O)[C@@H](NC(=O)OCc1ccccc1)C(C)C)C(=O)CF [zVAD, carbobenzoxy-valyl-alanyl-aspartyl-[O-methyl]-fluoromethyl ketone] (Cbz-Val-Ala-Asp(OMe)-CH2F)
organoid survival under combined 5-FU/rapamycin treatment ([3]; apoptosis inhibitor zVAD (50 μM) added): rescued the negative effect of combined 5-FU/rapamycin treatment on organoid survival
